Experimental data from ChEMBL document CHEMBL4028852, “Design of a Chemical Probe for the Bromodomain and Plant Homeodomain Finger-Containing (BRPF) Family of Proteins” (J Med Chem, 2017).

Key:
Peregrin (Homo sapiens) = target: T1, Peregrin (Homo sapiens) (UniProt P55201)
T1 sequence (whole entry): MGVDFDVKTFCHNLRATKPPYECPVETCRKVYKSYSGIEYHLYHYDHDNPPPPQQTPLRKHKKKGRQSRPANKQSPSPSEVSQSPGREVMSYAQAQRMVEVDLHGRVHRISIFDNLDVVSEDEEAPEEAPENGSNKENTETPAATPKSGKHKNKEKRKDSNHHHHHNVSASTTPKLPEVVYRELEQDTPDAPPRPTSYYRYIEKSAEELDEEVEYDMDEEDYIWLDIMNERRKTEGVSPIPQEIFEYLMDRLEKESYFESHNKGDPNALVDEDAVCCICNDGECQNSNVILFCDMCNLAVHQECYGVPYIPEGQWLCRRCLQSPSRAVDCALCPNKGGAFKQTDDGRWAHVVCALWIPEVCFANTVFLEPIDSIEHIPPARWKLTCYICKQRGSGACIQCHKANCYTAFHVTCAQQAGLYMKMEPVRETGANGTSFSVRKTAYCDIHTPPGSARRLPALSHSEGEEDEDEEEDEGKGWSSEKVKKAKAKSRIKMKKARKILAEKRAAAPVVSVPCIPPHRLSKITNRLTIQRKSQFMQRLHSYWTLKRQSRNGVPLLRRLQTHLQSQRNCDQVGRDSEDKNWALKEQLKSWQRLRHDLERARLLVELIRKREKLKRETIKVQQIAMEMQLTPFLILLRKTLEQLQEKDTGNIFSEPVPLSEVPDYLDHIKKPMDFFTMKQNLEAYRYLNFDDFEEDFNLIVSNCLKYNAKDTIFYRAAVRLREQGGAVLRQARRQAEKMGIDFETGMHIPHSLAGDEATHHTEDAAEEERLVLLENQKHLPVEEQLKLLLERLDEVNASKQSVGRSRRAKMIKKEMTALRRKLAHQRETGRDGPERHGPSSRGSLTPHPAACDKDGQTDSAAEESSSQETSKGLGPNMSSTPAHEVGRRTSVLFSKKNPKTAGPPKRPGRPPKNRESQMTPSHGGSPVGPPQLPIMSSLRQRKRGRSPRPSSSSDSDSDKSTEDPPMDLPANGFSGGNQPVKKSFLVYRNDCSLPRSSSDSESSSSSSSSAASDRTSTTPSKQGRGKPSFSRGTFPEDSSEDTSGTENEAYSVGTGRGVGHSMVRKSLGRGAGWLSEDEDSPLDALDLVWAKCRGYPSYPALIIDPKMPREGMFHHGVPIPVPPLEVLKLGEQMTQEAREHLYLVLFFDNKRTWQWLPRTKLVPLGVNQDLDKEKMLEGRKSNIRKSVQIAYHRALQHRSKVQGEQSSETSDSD
Description: Binding affinity to BRPF1 (unknown origin) assessed as change in melting temperature at 10 uM by differential scanning fluorimetry based thermal shift assay

[1] = target: T2, Bromodomain-containing protein 1 (Homo sapiens, UniProt O95696); test: Inhibition of human BRPF2 (556 to 688 residues) expressed in Escherichia coli BL21 after 1 hr by BROMOscan assay
T2 sequence (O95696 whole entry): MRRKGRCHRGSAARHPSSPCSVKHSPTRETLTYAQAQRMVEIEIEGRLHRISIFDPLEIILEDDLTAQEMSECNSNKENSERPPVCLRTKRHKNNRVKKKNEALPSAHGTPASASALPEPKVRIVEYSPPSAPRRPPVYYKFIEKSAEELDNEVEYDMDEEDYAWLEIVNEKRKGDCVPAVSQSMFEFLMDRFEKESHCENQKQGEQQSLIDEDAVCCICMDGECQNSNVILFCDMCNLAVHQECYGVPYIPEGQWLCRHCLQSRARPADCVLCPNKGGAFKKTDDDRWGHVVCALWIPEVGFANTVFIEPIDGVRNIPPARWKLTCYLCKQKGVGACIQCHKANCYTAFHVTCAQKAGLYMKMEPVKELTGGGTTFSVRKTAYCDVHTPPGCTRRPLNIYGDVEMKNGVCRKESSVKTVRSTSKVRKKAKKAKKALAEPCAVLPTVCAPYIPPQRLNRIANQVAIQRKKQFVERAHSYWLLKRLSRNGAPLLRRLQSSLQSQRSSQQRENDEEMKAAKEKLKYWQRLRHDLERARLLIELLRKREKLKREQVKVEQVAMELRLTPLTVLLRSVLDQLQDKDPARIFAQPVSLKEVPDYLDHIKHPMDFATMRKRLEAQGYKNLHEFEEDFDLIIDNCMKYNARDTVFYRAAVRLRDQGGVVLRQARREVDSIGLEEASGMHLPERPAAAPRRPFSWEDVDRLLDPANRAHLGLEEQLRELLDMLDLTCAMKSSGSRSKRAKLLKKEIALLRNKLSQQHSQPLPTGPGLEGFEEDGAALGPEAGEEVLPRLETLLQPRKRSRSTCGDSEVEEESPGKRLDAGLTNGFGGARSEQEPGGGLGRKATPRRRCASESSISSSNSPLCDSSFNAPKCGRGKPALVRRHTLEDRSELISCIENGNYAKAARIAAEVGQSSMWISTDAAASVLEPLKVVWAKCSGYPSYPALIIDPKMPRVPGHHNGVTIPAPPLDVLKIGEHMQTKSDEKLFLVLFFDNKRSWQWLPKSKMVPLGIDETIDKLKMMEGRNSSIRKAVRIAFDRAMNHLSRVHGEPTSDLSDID

[2] = target: T3, Bromodomain and PHD finger-containing protein 3 (Homo sapiens, UniProt Q9ULD4); test: Inhibition of human BRPF3 (588 to 701 residues) expressed in Escherichia coli BL21 after 1 hr by BROMOscan assay
T3 sequence (Q9ULD4 whole entry): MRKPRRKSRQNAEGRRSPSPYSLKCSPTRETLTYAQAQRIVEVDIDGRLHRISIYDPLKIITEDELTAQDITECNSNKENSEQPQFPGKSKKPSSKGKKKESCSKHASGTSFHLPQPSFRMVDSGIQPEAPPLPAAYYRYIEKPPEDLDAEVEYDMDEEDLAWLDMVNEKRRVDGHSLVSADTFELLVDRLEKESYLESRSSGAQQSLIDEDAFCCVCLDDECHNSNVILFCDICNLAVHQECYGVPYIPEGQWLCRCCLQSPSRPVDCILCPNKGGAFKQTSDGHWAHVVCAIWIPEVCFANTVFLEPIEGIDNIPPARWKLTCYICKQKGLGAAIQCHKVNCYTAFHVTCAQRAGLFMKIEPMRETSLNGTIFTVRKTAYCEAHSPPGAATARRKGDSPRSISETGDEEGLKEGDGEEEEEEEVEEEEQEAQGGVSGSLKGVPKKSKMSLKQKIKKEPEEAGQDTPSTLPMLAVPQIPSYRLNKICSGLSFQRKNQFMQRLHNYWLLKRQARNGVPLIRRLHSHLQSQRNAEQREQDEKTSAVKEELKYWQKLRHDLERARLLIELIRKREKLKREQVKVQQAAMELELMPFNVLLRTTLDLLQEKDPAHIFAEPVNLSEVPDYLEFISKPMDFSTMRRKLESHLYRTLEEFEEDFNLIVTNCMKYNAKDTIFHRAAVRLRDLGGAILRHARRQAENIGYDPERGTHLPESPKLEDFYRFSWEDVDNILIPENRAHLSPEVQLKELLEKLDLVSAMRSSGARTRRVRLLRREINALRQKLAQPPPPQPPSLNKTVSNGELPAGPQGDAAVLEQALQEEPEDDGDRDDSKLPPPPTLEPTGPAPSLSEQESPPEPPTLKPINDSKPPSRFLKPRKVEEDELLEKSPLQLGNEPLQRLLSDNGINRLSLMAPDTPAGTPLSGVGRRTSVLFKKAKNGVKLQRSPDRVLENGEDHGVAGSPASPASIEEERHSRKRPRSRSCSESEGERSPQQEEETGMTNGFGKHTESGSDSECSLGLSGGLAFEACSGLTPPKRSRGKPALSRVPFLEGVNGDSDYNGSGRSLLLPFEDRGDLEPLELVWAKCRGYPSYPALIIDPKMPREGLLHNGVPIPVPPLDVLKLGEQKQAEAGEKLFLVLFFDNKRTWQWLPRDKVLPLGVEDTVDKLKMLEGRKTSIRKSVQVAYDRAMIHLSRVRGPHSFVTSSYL

Peregrin = target: T4, Peregrin (Homo sapiens, UniProt P55201); test: Inhibition of human BRPF1 (627 to 740 residues) expressed in Escherichia coli BL21 after 1 hr by BROMOscan assay
T4 sequence (P55201 whole entry): T1 sequence (whole entry)

[3] = target: Bromodomain-containing protein 4 (Homo sapiens, UniProt O60885); test: Inhibition of human BRD4 isoform long bromodomain 1 (44 to 168 residues) expressed in Escherichia coli BL21 after 1 hr by BROMOscan assay
NCI-H1703 = test: Inhibition of cell proliferation of human NCI-H1703 cells after 72 hrs by MTS assay; assay type: functional; conditions: NCI-H1703, 72 h
[4] = Inhibition of cell proliferation of human HRA19 cells after 72 hrs by MTS assay; assay type: functional; conditions: HRA19, 72 h
DMS-114 = test: Inhibition of cell proliferation of human DMS114 cells after 72 hrs by MTS assay; assay type: functional; conditions: DMS-114, 72 h
[5] = Inhibition of cell proliferation of human RERF-LC-Sq1 cells after 72 hrs by MTS assay; assay type: functional; conditions: RERF-LC-Sq1, 72 h
[6] = target: T5, Bromodomain-containing protein 9 (Homo sapiens, UniProt Q9H8M2)
T5 sequence (Q9H8M2 whole entry): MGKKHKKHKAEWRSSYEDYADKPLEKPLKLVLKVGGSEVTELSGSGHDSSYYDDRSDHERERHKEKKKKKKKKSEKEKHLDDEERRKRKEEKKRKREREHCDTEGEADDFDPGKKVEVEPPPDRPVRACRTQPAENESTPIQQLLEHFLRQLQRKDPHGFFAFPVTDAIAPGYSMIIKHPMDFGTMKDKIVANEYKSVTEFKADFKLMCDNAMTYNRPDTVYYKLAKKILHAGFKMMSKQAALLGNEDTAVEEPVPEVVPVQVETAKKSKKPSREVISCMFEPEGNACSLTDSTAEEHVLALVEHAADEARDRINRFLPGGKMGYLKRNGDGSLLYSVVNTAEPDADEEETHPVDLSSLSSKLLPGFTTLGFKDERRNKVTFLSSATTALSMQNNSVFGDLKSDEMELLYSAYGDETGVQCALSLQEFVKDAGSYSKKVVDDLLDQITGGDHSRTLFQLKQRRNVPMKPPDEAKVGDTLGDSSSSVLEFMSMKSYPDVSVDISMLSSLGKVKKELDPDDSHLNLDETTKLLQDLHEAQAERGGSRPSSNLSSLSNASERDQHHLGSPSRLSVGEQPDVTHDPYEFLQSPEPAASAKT
Description: Inhibition of human BRD9 (130 to 259 residues) expressed in Escherichia coli BL21 after 1 hr by BROMOscan assay

| ΔTm (Peregrin (Homo sapiens)) | Structure (SMILES) | further results |
| --- | --- | --- |
| 6.3 °C | COc1cc2c(ccc(=O)n2C)cc1NS(=O)(=O)c1ccccc1 |  |
| 1.8 °C | CCS(=O)(=O)Nc1ccc2c(ccc(=O)n2C)c1 |  |
|  | CC(C)c1cc2cc(NS(=O)(=O)c3ccc(C#N)cc3)ccc2n(C)c1=O | IC50 [1]: 14 µM; IC50 [2]: 16 µM; IC50 (Peregrin): 0.87 µM |
| 9.4 °C | COc1cc2c(cc1NS(=O)(=O)c1ccccc1)cc(C)c(=O)n2C |  |
| 5.6 °C | CCc1cc2cc(NS(=O)(=O)c3ccc(C#N)cc3)ccc2n(C)c1=O |  |
| 2.4 °C | Cn1c(=O)ccc2cc(NS(=O)(=O)c3ccccc3C#N)ccc21 |  |
| 1.8 °C | CN(c1ccc2c(ccc(=O)n2C)c1)S(=O)(=O)c1ccc(C#N)cc1 |  |
| 8 °C | CCc1cc2cc(NS(=O)(=O)c3ccc(C#N)cc3OC)ccc2n(C)c1=O | IC50 (Peregrin): 0.093 µM |
|  | COc1cc(C#N)ccc1S(=O)(=O)N(c1ccc2c(c1)cc(C)c(=O)n2C)C(C)C | IC50 (Peregrin): 0.16 µM |
| 10.2 °C | COc1ccccc1S(=O)(=O)Nc1ccc2c(c1)cc(C)c(=O)n2C |  |
| 3.1 °C | Cn1c(=O)ccc2cc(S(=O)(=O)Nc3ccc(C#N)cc3)ccc21 | IC50 [2]: 2.2 µM |
| 3.9 °C | Cn1c(=O)ccc2cc(NS(=O)(=O)C3CCCCC3)ccc21 |  |
|  | COc1cc2c(ccc(=O)n2C)cc1N(C)S(=O)(=O)c1ccc(C#N)cc1 | IC50 (Peregrin): 1 µM |
|  | CCc1cc2cc(NS(=O)(=O)c3ccc(C#N)cc3OC)ccc2n(CC)c1=O | IC50 [1]: 4.4 µM; IC50 [2]: 4.6 µM; IC50 (Peregrin): 0.25 µM |
| 5.6 °C | COc1cc2c(ccc(=O)n2C)cc1NS(=O)(=O)c1ccc(C#N)cc1 | IC50 [3]: > 10 µM |
| 4.3 °C | Cc1cc(=O)n(C)c2ccc(NS(=O)(=O)c3ccc(C#N)cc3)cc12 |  |
| 1.9 °C | Cn1c(=O)ccc2cc(NS(=O)(=O)C3CC3)ccc21 |  |
| 12.7 °C | COc1cc2c(cc1NS(=O)(=O)c1ccc(C#N)cc1OC)cc(C)c(=O)n2C | IC50 [3]: 1.7 µM |
| 9.7 °C | Cc1cc2cc(NS(=O)(=O)c3ccc(C#N)cc3)ccc2n(C)c1=O | GI50 (NCI-H1703): > 30 µM; GI50 [4]: 15.6 µM; GI50 (DMS-114): 16.6 µM; GI50 [5]: 17.1 µM |
| 6.8 °C | COc1cc(C#N)ccc1S(=O)(=O)Nc1cc(F)c2c(c1)cc(C)c(=O)n2C | IC50 [1]: 0.51 µM; IC50 [2]: 10 µM; IC50 (Peregrin): 0.012 µM |
| 8.8 °C | COc1cc2c(cc1NS(=O)(=O)c1ccc(C#N)cc1)cc(C)c(=O)n2C |  |
| 2.2 °C | CC(C)S(=O)(=O)Nc1ccc2c(ccc(=O)n2C)c1 |  |
|  | CCc1cc2cc(NS(=O)(=O)c3ccc(C#N)cc3)ccc2n(CC)c1=O | IC50 [3]: > 100 µM |
| 5.2 °C | Cn1c(=O)ccc2cc(NS(=O)(=O)c3ccc(C#N)cc3)ccc21 |  |
|  | CCN(c1ccc2c(c1)cc(C)c(=O)n2C)S(=O)(=O)c1ccc(C#N)cc1OC | IC50 (Peregrin): 0.11 µM |
| 5.3 °C | Cn1c(=O)ccc2cc(NS(=O)(=O)c3ccccc3)ccc21 | IC50 [6]: 2.2 µM |
| 1.4 °C | Cn1c(=O)ccc2cc(NS(C)(=O)=O)ccc21 |  |
| 4.4 °C | Cn1c(=O)ccc2cc(NS(=O)(=O)c3cccc(C#N)c3)ccc21 |  |
| 7.1 °C | COc1cc(C#N)ccc1S(=O)(=O)N(C)c1ccc2c(c1)cc(C)c(=O)n2C |  |
